# Measured values: patent US11384106B2, “Metal tricarbonyl complexes comprising substituted iminodiactic acid ligands and uses as radioisotope tracers” (priority 2015, dated 2022)
# What was measured:
# [1] = relative to ^131I-OIH; cited from earlier work
# [2] = Stability of ^18F radiotracer solution (pH 7) by HPLC; type: physicochemical; details: incubated for 23 hours
# Procedure: Re(CO)3(^18FFEDA) (3) was prepared by reacting the corresponding tosyl precursor, rheniumtricarbonyl-N-ethyltosylate iminodiacetate, Re(CO)3(TsDA), with [18F]fluoride ion (^18F) in anhydrous acetonitrile in the presence of K2CO3 and Kryptofix 222 at 110° C. for 20 min in a chemical processing control unit (CPCU). The resulting radiolabeled product was purified by semi-preparative high performance liquid chromatography (HPLC) using a Waters XTerra Prep RP 18 column (5 jam, 19×100 mm) and eluted with a mobile phase of 0.05 M triethylammonium phosphate (TEAP) buffer (pH=7)/ethanol (80:20 v/v) at a flow rate of 6 mL/min. The solution of the ^18F radiotracer (pH 7) was analyzed by HPLC for stability for up to 23 h.
# [3] = Evaluation in rats using ^131I-OIH as internal control (blood clearance, renal excretion, urine metabolites); type: in vivo; details: for % injected dose in the urine, as % of that of ^131I-OIH: relative to ^131I-OIH internal control
# Procedure: (§1) ^99mTc(CO)^3(FEDA) was evaluated in rats using ^131I-OIH as an internal control; urine was analyzed for metabolites. Plasma protein binding (PPB) and erythrocyte uptake (RCB) were determined from the 10 min blood samples. The Re(CO)3 analog was prepared for structural characterization.
# plasma protein = test: Plasma protein binding (PPB) from 10 min blood samples; type: in vitro ADME; details: rats
# Procedure: as §1
# [4] = Stability of ^99mTc tracer at physiological pH / physiological conditions
# erythrocyte = test: Erythrocyte uptake (RCB) from 10 min blood samples; type: in vitro ADME; details: rats
# Procedure: as §1
compound,measurement,setting,value
"O=C([O-])CN=C([O-])CN=C([O-])CN=C([O-])C[S-].[O-2].[Tc+4] [^99mTc-MAG3, ^99mTc-mercaptoacetyltriglycine]",Clearance compared to ^131I-OIH,[1],50-65%
Re(CO)3(N-(2-^18fluoroethyl)iminodiacetate) [Re(CO)3(^18FFEDA)],Stability by HPLC analysis after incubation,[2],only intact
^99mTc(CO)3(N-(2-fluoroethyl)iminodiacetate) [^99mTc(CO)3(FEDA)],Clearance compared with ^131I-OIH,[3]; compared with gold standard ^131I-OIH,comparable to the gold standard
same,Renal excretion,"[3]; rat studies, compared with ^99mTc-MAG3",rapid renal excretion
same,Blood clearance,[3]; rats,rapid blood clearance
same,Specificity for renal excretion,[3]; rats,high specificity for renal excretion
same,Uptake in other organs,[3]; rats,lack of significant uptake in other organs
same,"% injected dose in the urine, as % of that of ^131I-OIH","[3]; rats, 10 min after injection",100%
same,"% injected dose in the urine, as % of that of ^131I-OIH","[3]; rats, 60 min after injection",99%
same,Metabolites in urine (form in which the tracer is excreted),"[3]; rats, urine analyzed for metabolites",secreted intact in the urine
same,Plasma protein binding (PPB),plasma protein,61%
same,Stability (time stable),[4]; physiological conditions,at least 1 d
same,Stability (time stable),[4]; physiological pH,≥ 24 h
same,Erythrocyte uptake (RCB),erythrocyte,20%
